For series [1], the system named is liver cancer BEL-7404 cell line cells. Kind of series: MTT cell viability assay.
For series [2], the system named is suppressor/cytotoxic T-lymphocyte subset (CD3/CD8). The series can be described thus: FastImmune CD69 T-cytotoxic/suppressor lymphocyte activation in whole blood cultures. It counts as cell-based, human. Conditions: 10 ng/ml. From the text:
(§1) In vitro lymphocyte activation represents a standard approach for evaluating cell-mediated responses to a variety of stimuli including immunostimulatory botanical extracts. The FastImmune assay system monitors the expression of the early activation marker CD69 in whole blood after stimulation with extracts.
(§2) T-lymphocyte subsets can be identified and quantified by using fluorochrome-labeled antibody combinations such as CD4/CD69/CD3 and CD8/CD69/CD3. CD4 antigen is expressed on the T-helper/inducer lymphocyte subset (CD3/CD4). CD8 antigen is expressed on the human suppressor/cytotoxic T-lymphocyte subset (CD3/CD8). Once activated both CD4 and CD8 positive T cells express CD69.
(§3) Blood samples were collected from healthy volunteers and 250 μl blood sample were incubated in 48-well plates with increasing concentrations of compound along with appropriate positive controls (recommended by Becton Dickinson Biosciences, CA) for each subset. CD2/CD2R and Phorbol ester (PMA) were used as controls for T-lymphocyte activation studies. […] T2CA, a characterized polysaccharide complex evaluated in these assays was also used as a control. The blood cultures were incubated at 37° C. in a CO2 incubator for 24 h. […] The percentage of activated T-cell subsets, B-cells and NK-cells and the percentage increase over untreated control were calculated and plotted against compound concentrations.

For series [3], the system named is T-helper/inducer lymphocyte subset (CD3/CD4). Kind of series: FastImmune CD69 T-helper/inducer lymphocyte activation in whole blood cultures. It is filed as cell-based, human. Conditions: 10 ng/ml.
Text: as §1, §2, §3

[4] abbreviates: increase over untreated control.

For the molecule `C=CCc1ccc(O)c(-c2ccc(O)c(CC=C)c2)c1` [HNK, honokiol], the cell growth inhibition in series [1] (10 μg/ml of HNK, 72 hour treatment, BEL-7404 cells) is recorded as 68.7%. For the same molecule, in series [1] (5 mcg/ml of HNK alone, BEL-7404 cells, FIG. 1), the inhibition entry was “around 25%”. Further, the “cytotoxicity on BEL-7404 cells (in words)” value in series [1] (72 hour treatment, single agents) was “cytotoxicity on BEL-7404 cells in a dose dependent manner”.

`CCCCCCCCCCCCCC(=O)O[C@@H]1[C@@H](C)[C@@]2(O)[C@@H](C=C(CO)C[C@]3(O)C(=O)C(C)=C[C@@H]23)[C@@H]2C(C)(C)[C@]12OC(C)=O` [PMA, Phorbol ester]: in series [2] (24 h blood culture), the “T-cytotoxic/suppressor Lymphocyte Activation, Activation (%)” value is 5.68%. Further, the “T-cytotoxic/suppressor Lymphocyte Activation, % Increase” value in series [2] (setting [4]) stood at 54.45%. In addition, the “T-helper/inducer Lymphocyte Activation, Activation (%)” value in series [3] (24 h blood culture) is on record as 5.93%. The “T-helper/inducer Lymphocyte Activation, % Increase” value in series [3] (setting [4]) is 120.86%.

The values above are taken from patent publication US8916541B2, “Synergistic combination of honokiol and modified citrus pectin in cancer therapy” (Better Health Publishing, Inc., priority 2011, dated 2014).
